Test results reported in patent publication US20220175761A1, “BI-LIGAND DRUG CONJUGATE AND USE THEREOF” (COHERENT BIOPHARMA (SUZHOU), LIMITED, priority 2019, published 2022).
Numbered stars: 1 amine (or outer) side, 2 acyl side, 3 side chain; on linkers, the order of the positions; unused ones are H or OH. Bridge positions count the residues as written; N and C are the ends. Square brackets hold non-standard residues; d marks the D form. Peptide text beside a SMILES is read from it. I, II: the chains in the order shown. * marks the point of attachment. ξ: configuration not given here. Hexanoyl(6-succinimido-3yl) = O=C1CC([*:1])C(=O)N1CCCCCC(=O)[*:2]; EuK = O=C(O)CC[C@H](NC(=O)N[C@@H](CCCCN*)C(=O)O)C(=O)O; Dolaproine = CO[C@@H]([C@@H]1CCCN1)[C@@H](C)C(=O)O; Dil = CC[C@H](C)[C@H](NC)[C@@H](CC(=O)O)OC; PABC = O=C(OCc1ccc(N[*:1])cc1)[*:2]; X1 = C[C@@H](N*)[C@@H](O)c1ccccc1; X2 = O=C(Cc1ccc(CN[*:1])cc1)[*:2]; PEG4 = NCCOCCOCCOCCOCCC(=O)O; NMeV = CN[C@H](C(=O)O)C(C)C; ξCit = NC(=O)NCCCC(N)C(=O)O; CO = O=C([*:1])[*:2]; ξV = CC(C)C(N)C(=O)O; Ahx = NCCCCCC(=O)O

Key:
[1] = tested on: PANC-1 (human pancreatic cancer cells); experiment: Inhibition of cell line proliferation, CCK8; assay type: cell-based
Method: Experimental operations: PANC-1 and CFPAC-1 cells were prepared in advance, counted, and plated in 96-well cell culture plates at a cell density of 4×10^4 cells/ml (100 μl/well); negative control and blank control wells were set on each plate. After adherent cell culture overnight, the diluted samples to be tested were added at 50 μl/well. The plates were placed in an incubator at 37° C., 5% CO2 and cultured for 68-72 hours. To each well, 15 μl (10% of the liquid volume in a well) of a color developing solution from CCK8 was added; and the plates were incubated at 37° C. for 45-70 minutes and each plate was read at 450 nm on a microplate reader. The data was edited using SoftMax Pro and a 4-P fitting curve was plotted.
(§1) Experimental operations: LNCaP, SK-BR-3, NCI-H226, CFPAC-1 and PANC-1 cells were prepared in advance and counted; with a culture medium (IMDM+10% FBS+1× L-Glutamine+1×P/S), the cells LNCaP, SK-BR-3 and CFPAC-1 were diluted to 4×10^4 cells/ml, NCI-H226 was diluted to 2.0×10^4 cells/ml and PANC-1 was diluted to 3.0×10^4 cells/ml; the diluted cell solution was plated in 96-well plates at 100 μl/well; and negative control and blank control wells were set on each plate. After adherent cell culture overnight, the diluted samples to be tested were added at 50 μl/well. The plates were placed in an incubator at 37° C., 5% CO2 and cultured for 68-72 hours. To each well, 15 μl (10% of the liquid volume in a well) of a color developing solution from CCK8 was added; and the plates were incubated at 37° C. for 45-70 minutes and each plate was read at 450 nm on a microplate reader. The data was edited using SoftMax Pro and a 4-P fitting curve was plotted.
as §1, with “Operations:” for “operations:”, “MDA-MB-468,” for “SK-BR-3, NCI-H226,”, “MDA-MB-468” for “SK-BR-3”, “cells/ml,” for “cells/ml, NCI-H226 was diluted to 2.0×10^4 cells/ml”

[2] = tested on: LNCaP (human prostate cancer cells); experiment: Inhibition of cell line proliferation, CCK8; assay type: cell-based; details: LNCaP; for IC50: 68-72 hours, CCK8
[3] = tested on: CFPAC-1 (human pancreatic cancer cells); experiment: Inhibition of cell line proliferation, CCK8; assay type: cell-based; details: for IC50 (MMAE)/IC50 (conjugate): CFPAC-1; for IC50: CFPAC-1, 68-72 hours, CCK8
[4] = tested on: HPAF-II (human pancreatic cancer cells); experiment: Tumor growth inhibition in subcutaneous xenograft model (CDX); assay type: in vivo, BALB/c-nude mice
Method: (§2) Main CDX models: HPAF-II (human pancreatic cancer cells), NCI-H226 (human lung cancer cells) and SCLC-21H (small cell lung cancer cells)
(§3) The cells or tumor tissue mass were prepared and subcutaneously inoculated into the anterior right flank of BALB/c-nude mice. When the tumor volume expanded to 80-160 mm^3, a randomized grouping was performed, and a model control group and administration groups were set. The mice were administrated from the first day of grouping, wherein the administration dose was adjusted according to the latest weight measurement. The mice were administrated via tail vein injection at an administration volume of 10 μl/g. After grouping and administration, the effects of tumor growth and treatment on normal behaviors of animals, specifically including the activity of experimental animals, food intake and drinking status, weight gain or loss status, and other abnormal conditions in eyes, hair, etc., were monitored. After grouping and administration, the weight of mice was measured twice a week to calculate the rate of weight change; at the same time, the long diameter and short diameter of the tumor were measured with a vernier caliper, and the tumor volume, relative tumor proliferation rate, tumor volume inhibition rate and other indicators were calculated. The formula of tumor volume is TV=0.5 a×b^2, wherein a is […] the long diameter of a tumor and b is the short diameter of a tumor.

[5] = tested on: NCI-H226 (human lung cancer cells); experiment: Inhibition of cell line proliferation, CCK8; assay type: cell-based
Method: as §1
Experimental operations: NCI-H226, CFPAC-1 and MDA-MB-468 cells were prepared in advance and counted; MDA-MB-468 and CFPAC-1 cells were plated at a density of 2×10^4 cells/ml (100 μl/well) and NCI-H226 cells were plated at a density of 1×10^4 cells/ml (100 μl/well) in 96-well plates; and negative control and blank control wells were set on each plate. After adherent cell culture overnight, the diluted samples to be tested were added at 50 μl/well. The plates were placed in an incubator at 37° C., 5% CO2 and cultured for 68-72 hours. To each well, 15 μl (10% of the liquid volume in a well) of a color developing solution from CCK8 was added; and the plates were incubated at 37° C. for 45-70 minutes and each plate was read at 450 nm on a microplate reader. The data was edited using SoftMax Pro and a 4-P fitting curve was plotted.

[6] = tested on: SK-BR-3 (human breast cancer cells); experiment: Inhibition of cell line proliferation, CCK8; assay type: cell-based; details: for IC50 (MMAE)/IC50 (conjugate): SK-BR-3; for IC50: SK-BR-3, 68-72 hours, CCK8
Method: as §1
Experimental Operations: LNCaP, SK-BR-3, MDA-MB-468 and CFPAC-1 cells were prepared in advance and counted; with a culture medium (IMDM+10% FBS+1× L-Glutamine+1×P/S), the cells LNCaP, SK-BR-3, MDA-MB-468 and CFPAC-1 were diluted to 4×10^4 cells/ml; the diluted cell solution was plated in 96-well plates at 100 µl/well; and negative control and blank control wells were set on each plate. After adherent cell culture overnight, the diluted samples to be tested were added at 50 μl/well. The plates were placed in an incubator at 37° C., 5% CO2 and cultured for 68-72 hours. To each well, 15 μl (10% of the liquid volume in a well) of a color developing solution from CCK8 was added; and the plates were incubated at 37° C. for 45-70 minutes and each plate was read at 450 nm on a microplate reader. The data was edited using SoftMax Pro and a 4-P fitting curve was plotted.

[7] = tested on: MDA-MB-468 (human breast cancer cells); experiment: Inhibition of cell line proliferation, CCK8; assay type: cell-based
[8] = tested on: SCLC-21H (small cell lung cancer cells); experiment: Tumor growth inhibition in subcutaneous xenograft model (CDX); assay type: in vivo, BALB/c-nude mice; details: SCLC-21H CDX
Method: as §2, §3

[9] = tested on: NCI-H226 (human lung cancer cells); experiment: as above; assay type: in vivo, BALB/c-nude mice
Method: as §2, §3

Compound	IC50 (MMAE)/IC50 (conjugate) ([1]; PANC-1)	IC50 ([1]; PANC-1, 68-72 hours, CCK8) [nM]	IC50 ratio (MMAE/conjugate) [2]	IC50 [2] [nM]	IC50 (MMAE)/IC50 (conjugate) [3]	IC50 [3] [nM]	anti-tumor growth effect (in words) [4]	IC50 (MMAE)/IC50 (conjugate) ([5]; NCI-H226)	IC50 ([5]; NCI-H226, 68-72 hours, CCK8) [nM]	IC50 (MMAE)/IC50 (conjugate) [6]	IC50 [6] [nM]	IC50 (MMAE)/IC50 (conjugate) ([7]; MDA-MB-468)	IC50 ([7]; MDA-MB-468, 68-72 hours, CCK8) [nM]	anti-tumor growth effect (in words) [8]	anti-tumor growth effect (in words) [9]
CC[C@H](C)[C@@H]([C@@H](CC(=O)N1CCC[C@H]1[C@H](OC)[C@@H](C)C(=O)N[C@H](C)[C@@H](O)c1ccccc1)OC)N(C)C(=O)[C@@H](NC(=O)[C@H](C(C)C)N(C)C(=O)OCc1ccc(NC(=O)C(CCCNC(N)=O)NC(=O)[C@@H](NC(=O)CCCCCN2C(=O)CC(SC[C@@H](NC(=O)CCCCCNC(=O)[C@H](CCCCN)NC(=O)[C@H](CC(=O)O)NC(=O)[C@H](CC(=O)O)NC(=O)Cc3ccc(CNC(=O)NCCCC[C@H](NC(=O)N[C@@H](CCC(=O)O)C(=O)O)C(=O)O)cc3)C(=O)NCCOCCOCCOCCOCCC(=O)N[C@@H](CCCCN)C(=O)N[C@@H](CCC(=O)O)C(=O)N[C@@H](Cc3ccccc3)C(=O)N[C@@H](CC(C)C)C(=O)N[C@@H](Cc3cnc[nH]3)C(=O)N3CCC[C@H]3C(=O)N[C@@H](CO)C(=O)N[C@@H](CCCCN)C(=O)NC(C(=O)N[C@@H](CC(=O)O)C(=O)N[C@@H](CC(C)C)C(=O)N3CCC[C@H]3C(=O)N[C@@H](CCCNC(=N)N)C(=O)O)C(C)C)C2=O)C(C)C)cc1)C(C)C (stereo partly drawn) [CB-1020] (I: {EuK-CO}-[X2]DDK[Ahx][dC][PEG4]KEFLHPSK[ξV]DLPR-OH / II: V[ξCit][PABC][NMeV]V[Dil][Dolaproine]-X1; linker I:6-II:N via Hexanoyl(6-succinimido-3yl))	0.0044	458	0.0179	168	0.005	3000	obvious anti-tumor growth effect	0.00384	1570	0.0070	287	–	–	–	–
CC[C@H](C)[C@@H]([C@@H](CC(=O)N1CCC[C@H]1[C@H](OC)[C@@H](C)C(=O)N[C@H](C)[C@@H](O)c1ccccc1)OC)N(C)C(=O)[C@@H](NC(=O)[C@H](C(C)C)N(C)C(=O)OCc1ccc(NC(=O)C(CCCNC(N)=O)NC(=O)[C@@H](NC(=O)CCCCCN2C(=O)CC(SC[C@@H](NC(=O)CCCCCNC(=O)[C@H](CCCCN)NC(=O)[C@H](CC(=O)O)NC(=O)[C@H](CC(=O)O)NC(=O)Cc3ccc(CNC(=O)NCCCC[C@H](NC(=O)N[C@@H](CCC(=O)O)C(=O)O)C(=O)O)cc3)C(=O)NCCOCCOCCOCCOCCC(=O)NCCCCC(N[C@@H](Cc3ccc(O)cc3)C(=O)N[C@@H](CO)C(=O)N[C@@H](Cc3c[nH]c4ccccc34)C(=O)N[C@@H](Cc3cnc[nH]3)C(=O)[C@H]3CCC(=O)N3)C(=O)N[C@@H](CC(C)C)C(=O)N[C@@H](CCCNC(=N)N)C(=O)N3CCC[C@H]3C(=O)CN)C2=O)C(C)C)cc1)C(C)C (stereo partly drawn) [CB-1320]	–	–	0.043	60	0.014	1090	–	–	–	0.016	93	0.011	212	obvious anti-tumor growth effect	obvious anti-tumor growth effect
